Experiments:
[1] = test system: anti-compound 2 sera and anti-compound 3 sera; test: RIA of bupropion using 125I-labeled bupropion competitors with anti-compound 2 sera and anti-compound 3 sera; format: biochemical; settings: for RIA sensitivity compared with the compound 10 system: substitution of 7 or 8 as competitor, anti-compound 2 and anti-compound 3 sera
Description: (§1) Samples of six standard solutions of bupropion in blank plasma having concentrations of 0.39 to 50 ng/ml) are pipetted (0.1 ml each) in duplicate into 12×75 mm plastic tubes. Duplicate non-specific binding (no antibody) and maximum binding tubes (no unlabeled bupropion) receive 0.1 ml blank plasma. Spiked plasma controls at several concentrations of (e.g., 1.0, 10.0, and 100 ng/ml) and plasma samples for assay (diluted into the standard range with blank plasma if necessary) are assayed in duplicate. After being placed in an ice bath, all tubes receive (in order) 0.2 ml ^3 H bupropion (416 pg. containing approximately 10^4 cpm) and 0.7 ml anti-bupropion serum (raised to a ring-functionalized immunogen according to the present invention) (at pre-determined dilutions such that approximately 40% of the ^3 H bupropion added is bound), both in assay buffer (0.05 M phosphate-bufferedisotonic saline, containing 0.01 M EDTA and 0.1% gelatin, pH 7.0). Non-specific binding tubes receive 0.7 ml assay buffer.) Following incubation either at 25° C. for 2 hours or overnight at 4° C., bound and free ^3 H bupropion are separated by incubation for 10 min at 0° C. with 0.5 ml ice-cold dextran-coated charcoal solution (0.25% dextran, 5 mg/ml charcoal, in assay buffer) followed by centrifugation for 10 minutes at 4° C. […] The supernatants, containing antibody-bound ^3 H bupropion are carefully decanted into liquid scintillation cocktail for quantitation of ^3 H. After counts (minus average non-specific binding cpm) are expressed as percentages of average maximum binding cpm, bupropion concentrations in plasma samples and spiked controls are read from a standard curve (log concentration vs percent average maximum binding).
RIA's have been run according to the method of Example X utilizing ^125 I labeled bupropion competitors of the present invention in conjunction with antisera obtained following immunization with immunogens of the present invention. […] Following the ethanol precipation of antibody-bound ^125 I-bupropion competitior at equilibrium, ^125 I in the protein pellets was quantified.

anti-compound 1 sera = test: RIA of bupropion using compound 6 with anti-compound 1 sera; format: biochemical
Description: as §1, with “7.0).” for “7.0). Non-specific binding tubes receive 0.7 ml assay buffer.) Following incubation either at 25° C. for 2 hours or overnight at 4° C., bound and free ^3 H bupropion are separated by incubation for 10 min at 0° C. with 0.5 ml ice-cold dextran-coated charcoal solution (0.25% dextran, 5 mg/ml charcoal, in assay buffer) followed by centrifugation for 10 minutes at 4° C.”, “binding). […]” for “binding).”

Row | Structure (SMILES) | RIA sensitivity compared with the compound 10 system [1] | other results
1 | CC(NC(C)(C)C)C(=O)c1ccc(CCCOC(=O)CCC(=O)NCCc2ccc(O)c([125I])c2)c(Cl)c1 (stereo not drawn) [compound 8, α-t-Butylamino-3-chloro-4-γ-hydroxypyropylpropiophenone-hemisuccinate-^125 I-tyramine amide] | approximately equal to that obtained with the compound 10 system | 
2 | CC(NC(C)(C)C)C(=O)c1ccc(OCC(=O)NCCc2ccc(O)c([125I])c2)c(Cl)c1 (stereo not drawn) [compound 7, α-t-Butylamino-3-chloro-4-carbomethoxypropiophenone-^125 I-tyramine amide] | approximately equal to that obtained with the compound 10 system | 
3 | CC(NC(C)(C)C)C(=NOCC(=O)NCCc1ccc(O)c([125I])c1)c1cccc(Cl)c1 (stereo not drawn) [compound 6, α-t-Butylamino-3-chloropropiophenone-carboxymethyloxime-^125 I-tyramine amide] |  | RIA sensitivity (anti-compound 1 sera): least sensitive RIA
4 | CC(NC(C)(C)C)C(=O)c1ccc(O)c([125I])c1 (stereo not drawn) [compound 9, ^125 I-α-t-Butylamino-3-iodo-4-hydroxypropiophenone] |  | RIA sensitivity relative to the compound 10 (3H bupropion) assay system ([1]; in conjunction with either antisera (anti-compound 2 or anti-compound 3)): approximately ten

— patent US4347178A, “Compounds and methods of making” (Burroughs Wellcome Co., priority 1980, dated 1982)
